Measurements from patent US11166959B2, “Isofuranone compounds useful as HPK1 inhibitors” (BRISTOL-MYERS SQUIBB COMPANY, priority 2017, dated 2021).
Like-named read-outs stand apart in the source and are kept apart here.

Key:
[1] = biological target: T1, HPK1 (Homo sapiens, UniProt Q92918); experiment: HPK1 Inhibition Assay (kinase reaction, Caliper capillary electrophoresis); assay type: biochemical; conditions: for IRAK4/HPK1 Ratio: ratio of the IRAK4 IC50 value to the HPK1 IC50 value
T1 construct: purchased SignalChem M23-11G
T1 sequence (Q92918 1-346 limits assumed): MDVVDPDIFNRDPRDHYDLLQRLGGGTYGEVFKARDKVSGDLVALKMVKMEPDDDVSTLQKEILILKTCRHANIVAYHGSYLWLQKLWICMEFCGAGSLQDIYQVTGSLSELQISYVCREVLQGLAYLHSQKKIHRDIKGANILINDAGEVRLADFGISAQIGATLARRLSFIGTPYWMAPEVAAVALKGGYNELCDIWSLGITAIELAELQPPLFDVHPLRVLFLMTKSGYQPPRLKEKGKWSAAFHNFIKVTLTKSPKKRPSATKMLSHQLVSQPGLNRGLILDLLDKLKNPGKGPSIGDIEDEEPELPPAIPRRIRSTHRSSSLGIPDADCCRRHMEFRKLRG
Experimental: (§1) The reactions were incubated out for three hours and quenched with 1 mM EDTA solution. The reaction incubation time and enzyme concentration were optimized to obtain a maximum peptide substrate conversion of 20-30%. The reaction mixtures were analyzed by capillary electrophoresis on a Caliper LabChip EZ Reader to resolve phosphorylated and unphosphorylated peptide species and determine peptide substrate conversion. […] The compounds were dissolved in DMSO and evaluated at 11 concentrations to determine the IC50 values.

[2] = biological target: T2, IRAK4 (Homo sapiens, UniProt Q9NWZ3); experiment: IRAK4 Inhibition Assay (kinase reaction, Caliper capillary electrophoresis); assay type: biochemical; conditions: 500 μM ATP, 11 concentrations
T2 construct: 1 nM IRAK4 (160-460); purchased SignalChem M24016
T2 sequence (Q9NWZ3 160-460): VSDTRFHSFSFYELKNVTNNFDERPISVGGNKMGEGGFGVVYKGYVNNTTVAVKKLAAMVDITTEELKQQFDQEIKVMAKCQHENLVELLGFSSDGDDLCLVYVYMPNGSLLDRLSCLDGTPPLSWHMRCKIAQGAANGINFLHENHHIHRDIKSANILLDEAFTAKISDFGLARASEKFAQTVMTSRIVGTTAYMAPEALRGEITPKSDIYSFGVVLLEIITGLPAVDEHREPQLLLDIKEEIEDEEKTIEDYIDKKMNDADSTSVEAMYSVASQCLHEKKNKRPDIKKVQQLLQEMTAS
Experimental: as §1, with “determine” for “determine the”

[3] = 0.625 nM HPK1, 22 μM ATP, 11 concentrations, read-out: HPK1 IC50

For `O=C1OCc2cc(Nc3ncc(-c4ncccn4)c(N[C@H](CO)c4ccccc4)n3)ccc21` [Example 1, 5-[(4′-{[(1S)-2-hydroxy-1-phenylethyl]amino}-[2,5′-bipyrimidine]-2′-yl)amino]-1,3-dihydro-2-benzofuran-1-one], the IC50 [1, 3] was < 0.05 µM, the “IRAK4/HPK1 Ratio” value [1] was “B (B=10 to 50)” and the IC50 [2] was 0.25 to 1 µM.

In the case of `CC1(C)OC(=O)c2ccc(Nc3ncc(C(=O)NCC4CC(F)(F)C4)c(N[C@H](CO)c4ccccc4)n3)cc21` [Example 4, N-[(3,3-difluorocyclobutyl)methyl]-2-[(3,3-dimethyl-1-oxo-1,3-dihydro-2-benzofuran-5-yl)amino]-4-{[(1S)-2-hydroxy-1-phenylethyl]amino}pyrimidine-5-carboxamide], the IC50 [1, 3] is reported as < 0.05 µM, the “IRAK4/HPK1 Ratio” value [1] is reported as “B (B=10 to 50)” and the IC50 [2] is reported as 0.25 to 1 µM.

For `CN(C)CCCNC(=O)c1cnc(Nc2ccc3c(c2)C(C)(C)OC3=O)nc1N[C@H](CO)c1ccccc1` [Example 5, 2-[(3,3-dimethyl-1-oxo-1,3-dihydro-2-benzofuran-5-yl)amino]-N-[3-(dimethylamino)propyl]-4-{[(1S)-2-hydroxy-1-phenylethyl]amino}pyrimidine-5-carboxamide], the IC50 [1, 3] was < 0.05 µM, the “IRAK4/HPK1 Ratio” value [1] was “B (B=10 to 50)” and the IC50 [2] was 0.25 to 1 µM.

In the case of `CC1(C)OC(=O)c2ccc(Nc3ncc(C(=O)NCc4ccccn4)c(N[C@H](CO)c4ccccc4)n3)cc21` [Example 6, 2-[(3,3-dimethyl-1-oxo-1,3-dihydro-2-benzofuran-5-yl)amino]-4-{[(1S)-2-hydroxy-1-phenylethyl]amino}-N-[(pyridin-2-yl)methyl]pyrimidine-5-carboxamide], the IC50 [1, 3] is reported as < 0.05 µM, the “IRAK4/HPK1 Ratio” value [1] is reported as “B (B=10 to 50)” and the IC50 [2] is reported as 0.05 to 0.25 µM.

For `CC1(C)OC(=O)c2ccc(Nc3ncc(C(=O)NCCCN4CCOCC4)c(N[C@H](CO)c4ccccc4)n3)cc21` [Example 7, 2-[(3,3-dimethyl-1-oxo-1,3-dihydro-2-benzofuran-5-yl)amino]-4-{[(1S)-2-hydroxy-1-phenylethyl]amino}-N-[3-(morpholin-4-yl)propyl]pyrimidine-5-carboxamide], the IC50 [1, 3] was < 0.05 µM, the “IRAK4/HPK1 Ratio” value [1] was “B (B=10 to 50)” and the IC50 [2] was 0.25 to 1 µM.

With `COCCNC(=O)c1cnc(Nc2ccc3c(c2)C(C)(C)OC3=O)nc1N[C@H](CO)c1ccccc1` [Example 8, 2-[(3,3-dimethyl-1-oxo-1,3-dihydro-2-benzofuran-5-yl)amino]-4-{[(1S)-2-hydroxy-1-phenylethyl]amino}-N-(2-methoxyethyl)pyrimidine-5-carboxamide] the IC50 [1, 3] was < 0.05 µM, the “IRAK4/HPK1 Ratio” value [1] was “B (B=10 to 50)” and the IC50 [2] was 0.05 to 0.25 µM.

With `CN(C)CCNC(=O)c1cnc(Nc2ccc3c(c2)C(C)(C)OC3=O)nc1N[C@H](CO)c1ccccc1` [Example 9, 2-[(3,3-dimethyl-1-oxo-1,3-dihydro-2-benzofuran-5-yl)amino]-N-[2-(dimethylamino)ethyl]-4-{[(1S)-2-hydroxy-1-phenylethyl]amino}pyrimidine-5-carboxamide] the IC50 [1, 3] was < 0.05 µM, the “IRAK4/HPK1 Ratio” value [1] was “B (B=10 to 50)” and the IC50 [2] was 0.25 to 1 µM.

With `CC1(C)OC(=O)c2ccc(Nc3ncc(C(=O)NCc4ccccc4)c(N[C@H](CO)c4ccccc4)n3)cc21` [Example 10, N-benzyl-2-[(3,3-dimethyl-1-oxo-1,3-dihydro-2-benzofuran-5-yl)amino]-4-{[(1S)-2-hydroxy-1-phenylethyl]amino}pyrimidine-5-carboxamide] the IC50 [1, 3] was < 0.05 µM, the “IRAK4/HPK1 Ratio” value [1] was “C (C=>50)” and the IC50 [2] was 0.25 to 1 µM.

For `CC(C)(C)NC(=O)c1cnc(Nc2ccc3c(c2)C(C)(C)OC3=O)nc1N[C@H](CO)c1ccccc1` [Example 11, N-tert-butyl-2-[(3,3-dimethyl-1-oxo-1,3-dihydro-2-benzofuran-5-yl)amino]-4-{[(1S)-2-hydroxy-1-phenylethyl]amino}pyrimidine-5-carboxamide], the IC50 [1, 3] was < 0.05 µM, the “IRAK4/HPK1 Ratio” value [1] was “B (B=10 to 50)” and the IC50 [2] was 0.25 to 1 µM.

In the case of `CC(C)CNC(=O)c1cnc(Nc2ccc3c(c2)C(C)(C)OC3=O)nc1N[C@H](CO)c1ccccc1` [Example 12, 2-[(3,3-dimethyl-1-oxo-1,3-dihydro-2-benzofuran-5-yl)amino]-4-{[(1S)-2-hydroxy-1-phenylethyl]amino}-N-(2-methylpropyl)pyrimidine-5-carboxamide], the IC50 [1, 3] is reported as < 0.05 µM, the “IRAK4/HPK1 Ratio” value [1] is reported as “B (B=10 to 50)” and the IC50 [2] is reported as 0.25 to 1 µM.

`CC(NC(=O)c1cnc(Nc2ccc3c(c2)C(C)(C)OC3=O)nc1N[C@H](CO)c1ccccc1)c1ccccc1` (stereo partly drawn) [Example 15, 2-[(3,3-dimethyl-1-oxo-1,3-dihydro-2-benzofuran-5-yl)amino]-4-{[(1S)-2-hydroxy-1-phenylethyl]amino}-N-(1-phenylethyl)pyrimidine-5-carboxamide] was tested, and the IC50 [1, 3] was 0.05 to 0.25 µM, the “IRAK4/HPK1 Ratio” value [1] was “B (B=10 to 50)” and the IC50 [2] was 0.25 to 1 µM.

`Cc1ccccc1CNC(=O)c1cnc(Nc2ccc3c(c2)C(C)(C)OC3=O)nc1N[C@H](CO)c1ccccc1` [Example 16, 2-[(3,3-dimethyl-1-oxo-1,3-dihydro-2-benzofuran-5-yl)amino]-4-{[(1S)-2-hydroxy-1-phenylethyl]amino}-N-[(2-methylphenyl)methyl]pyrimidine-5-carboxamide] was tested, and the IC50 [1, 3] was 0.05 to 0.25 µM, the “IRAK4/HPK1 Ratio” value [1] was “B (B=10 to 50)” and the IC50 [2] was 0.25 to 1 µM.

`CC1(C)OC(=O)c2ccc(Nc3ncc(C(=O)N[C@H]4C[C@@H]4c4ccccc4)c(N[C@H](CO)c4ccccc4)n3)cc21` [Example 17, 2-[(3,3-dimethyl-1-oxo-1,3-dihydro-2-benzofuran-5-yl)amino]-4-{[(1S)-2-hydroxy-1-phenylethyl]amino}-N-[(1S,2R)-2-phenylcyclopropyl]pyrimidine-5-carboxamide] was tested, and the IC50 [1, 3] was 0.05 to 0.25 µM, the “IRAK4/HPK1 Ratio” value [1] was “B (B=10 to 50)” and the IC50 [2] was 0.25 to 1 µM.

`CC1(C)OC(=O)c2ccc(Nc3ncc(C(=O)NCCCn4ccnc4)c(N[C@H](CO)c4ccccc4)n3)cc21` [Example 19, 2-[(3,3-dimethyl-1-oxo-1,3-dihydro-2-benzofuran-5-yl)amino]-4-{[(1S)-2-hydroxy-1-phenylethyl]amino}-N-[3-(1H-imidazol-1-yl)propyl]pyrimidine-5-carboxamide] was tested, and the IC50 [1, 3] was < 0.05 µM, the “IRAK4/HPK1 Ratio” value [1] was “B (B=10 to 50)” and the IC50 [2] was 0.25 to 1 µM.

`Cc1cnc(CNC(=O)c2cnc(Nc3ccc4c(c3)C(C)(C)OC4=O)nc2N[C@H](CO)c2ccccc2)cn1` [Example 20, 2-[(3,3-dimethyl-1-oxo-1,3-dihydro-2-benzofuran-5-yl)amino]-4-{[(1S)-2-hydroxy-1-phenylethyl]amino}-N-[(5-methylpyrazin-2-yl)methyl]pyrimidine-5-carboxamide] was tested, and the IC50 [1, 3] was < 0.05 µM, the “IRAK4/HPK1 Ratio” value [1] was “B (B=10 to 50)” and the IC50 [2] was 0.25 to 1 µM.

With `C#CCNC(=O)c1cnc(Nc2ccc3c(c2)C(C)(C)OC3=O)nc1N[C@H](CO)c1ccccc1` [Example 21, 2-[(3,3-dimethyl-1-oxo-1,3-dihydro-2-benzofuran-5-yl)amino]-4-{[(1S)-2-hydroxy-1-phenylethyl]amino}-N-(prop-2-yn-1-yl)pyrimidine-5-carboxamide] the IC50 [1, 3] was < 0.05 µM, the “IRAK4/HPK1 Ratio” value [1] was “B (B=10 to 50)” and the IC50 [2] was 0.25 to 1 µM.

`CC1(C)OC(=O)c2ccc(Nc3ncc(C(=O)NC4CCN(Cc5ccccc5)C4)c(N[C@H](CO)c4ccccc4)n3)cc21` (stereo partly drawn) [Example 22, N-(1-benzylpyrrolidin-3-yl)-2-[(3,3-dimethyl-1-oxo-1,3-dihydro-2-benzofuran-5-yl)amino]-4-{[(1S)-2-hydroxy-1-phenylethyl]amino}pyrimidine-5-carboxamide] was tested, and the IC50 [1, 3] was < 0.05 µM, the “IRAK4/HPK1 Ratio” value [1] was “C (C=>50)” and the IC50 [2] was 0.25 to 1 µM.

`CC1(CNC(=O)c2cnc(Nc3ccc4c(c3)C(C)(C)OC4=O)nc2N[C@H](CO)c2ccccc2)COC1` [Example 23, 2-[(3,3-dimethyl-1-oxo-1,3-dihydro-2-benzofuran-5-yl)amino]-4-{[(1S)-2-hydroxy-1-phenylethyl]amino}-N-[(3-methyloxetan-3-yl)methyl]pyrimidine-5-carboxamide] was tested, and the IC50 [1, 3] was < 0.05 µM, the “IRAK4/HPK1 Ratio” value [1] was “B (B=10 to 50)” and the IC50 [2] was 0.25 to 1 µM.

For `CC1(C)OC(=O)c2ccc(Nc3ncc(C(=O)NC[C@@]4(O)CN5CCC4CC5)c(N[C@H](CO)c4ccccc4)n3)cc21` [Example 24, 2-[(3,3-dimethyl-1-oxo-1,3-dihydro-2-benzofuran-5-yl)amino]-N-{[(3R)-3-hydroxy-1-azabicyclo[2.2.2]octan-3-yl]methyl}-4-{[(1S)-2-hydroxy-1-phenylethyl]amino}pyrimidine-5-carboxamide], the IC50 [1] was < 0.05 µM, the “IRAK4/HPK1 Ratio” value [1] was “B (B=10 to 50)” and the IC50 [2] was 0.25 to 1 µM.
